Laboratory results published in patent US10975037B2 (priority 2018, dated 2021).
Counter-ions that a name gives are not always drawn. Like-named read-outs stand apart in the source and are kept apart here.

Assays:
[1] = target: human RORγt ligand binding domain (RORγt LBD) (Homo sapiens (Human), UniProt P51449); test: RORγt ThermoFluor® assay (thermal shift binding)
In short: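 Thermal shift with 0.065 mg/mL RORγt LBD and 60 μM 1,8-ANS in 100 mM Hepes pH 7.0, 10 mM NaCl, 2.5 mM GSH, 0.002% Tween-20.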

[2] = target: full-length human RORγt (Homo sapiens (Human), UniProt P51449); test: RORγt (full-length human) reporter assay, conditions A or B, HEK293T cells; type: cell-based; details: for inhibition at 6 µM: read-out: RORγt (FL) Reporter Assay A or B, % inhibition @ 6 μM; for inhibition at 2 µM: 2 μM compound concentration; for inhibition at 3 µM: 3 μM compound concentration (footnote *)
In short: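 Dual-luciferase read-out was taken after an overnight (16–20 h) compound exposure. Firefly data were scaled between DMSO-only and saturating reference compound, Renilla-normalized, then plotted against concentration for IC50.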

[3] = HEK-293T, 0.11 μM compound concentration (footnote ********), read-out: RORγt (FL) Reporter Assay A or B, % inhibition
[4] = RORγt (FL) Reporter Assay A or B, IC50, HEK293T cells
[5] = HEK-293T, 6 μM compound concentration
[6] = HEK-293T, read-out: RORγt (FL) Reporter Assay A or B, % inhibition
[7] = read-out: ThermoFluor® Assay, Kd

Chain of human RORγt ligand binding domain (RORγt LBD) (P51449 other isoform, or with tags, fused parts or gaps): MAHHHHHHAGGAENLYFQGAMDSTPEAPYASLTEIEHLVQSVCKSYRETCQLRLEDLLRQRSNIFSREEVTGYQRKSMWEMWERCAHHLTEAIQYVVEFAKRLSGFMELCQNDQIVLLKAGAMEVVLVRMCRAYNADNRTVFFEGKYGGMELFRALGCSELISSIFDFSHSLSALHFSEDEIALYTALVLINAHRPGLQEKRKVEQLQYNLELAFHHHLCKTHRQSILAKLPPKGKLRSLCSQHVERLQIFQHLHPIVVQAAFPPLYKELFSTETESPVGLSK
Chain of full-length human RORγt (P51449 other isoform, or with tags, fused parts or gaps): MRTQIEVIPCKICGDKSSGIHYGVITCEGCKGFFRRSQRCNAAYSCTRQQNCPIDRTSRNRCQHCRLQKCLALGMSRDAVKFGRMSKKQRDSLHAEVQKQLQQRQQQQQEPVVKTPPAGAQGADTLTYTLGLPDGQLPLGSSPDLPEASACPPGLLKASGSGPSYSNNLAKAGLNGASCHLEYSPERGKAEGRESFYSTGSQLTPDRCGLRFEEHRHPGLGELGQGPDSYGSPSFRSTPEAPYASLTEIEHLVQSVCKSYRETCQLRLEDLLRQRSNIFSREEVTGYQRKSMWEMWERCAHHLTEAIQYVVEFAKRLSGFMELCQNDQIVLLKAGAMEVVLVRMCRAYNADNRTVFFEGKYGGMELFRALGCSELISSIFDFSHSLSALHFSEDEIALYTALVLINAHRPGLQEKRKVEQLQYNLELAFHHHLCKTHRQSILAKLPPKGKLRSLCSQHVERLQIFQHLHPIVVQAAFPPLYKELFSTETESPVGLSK

| SMILES | Kd ([1]; ThermoFluor® Assay, Kd) | IC50 [2, 4] | Kd [1, 7] | other results |
| --- | --- | --- | --- | --- |
| CCn1nc(C(=O)NC[C@H]2CC[C@H](S(C)(=O)=O)CC2)c(Cl)c1-c1ccc(C[C@H](C)C(F)(F)F)cc1OC(F)F (single isomer, unassigned) [Example 55, 4-Chloro-5-(2-(difluoromethoxy)-4-((S*)-3,3,3-trifluoro-2-methylpropyl)phenyl)-1-ethyl-N-(((1r,4S)-4-(methylsulfonyl)cyclohexyl)methyl)-1H-pyrazole-3-carboxamide] | 0.35 nM | 10 nM | – | inhibition at […] [2, 3]: 94% |
| CCn1nc(C(=O)NC[C@]2(C(=O)O)CC[C@@H](S(C)(=O)=O)CC2)c(Cl)c1-c1ccc(N[C@H](C)C(F)(F)F)cc1OC (relative stereo) [Example 97, (1s*,4S*)-1-((4-Chloro-1-ethyl-5-(2-methoxy-4-(((R)-1,1,1-trifluoropropan-2-yl)amino)phenyl)-1H-pyrazole-3-carboxamido)methyl)-4-(methylsulfonyl)cyclohexane-1-carboxylic Acid] | 180 nM | 730 nM | – | inhibition at 6 µM [2, 5]: 94% |
| CCn1nc(C(=O)NC[C@@]2(O)CC[C@@H](S(C)(=O)=O)C[C@@H]2O)c(Cl)c1-c1ccc(CC(C)(C)C(F)(F)F)cc1OC(F)F (single isomer, unassigned) [Example 49, 4-Chloro-5-(2-(difluoromethoxy)-4-(3,3,3-trifluoro-2,2-dimethylpropyl)phenyl)-N-(((1S*,2S*,4R*)-1,2-dihydroxy-4-(methylsulfonyl)cyclohexyl)methyl)-1-ethyl-1H-pyrazole-3-carboxamide] | 26 nM | 61 nM | – | inhibition at 2 µM [2, 6]: 96% |
| CCn1nc(C(=O)NC[C@]2(C(N)=O)CC[C@H](S(C)(=O)=O)CC2)c(Cl)c1-c1ccc(N[C@H](C)C(F)(F)F)cc1OC [Example 34, N-(((1r,4R)-1-carbamoyl-4-(methylsulfonyl)cyclohexyl)methyl)-4-chloro-1-ethyl-5-(2-methoxy-4-(((R)-1,1,1-trifluoropropan-2-yl)amino)phenyl)-1H-pyrazole-3-carboxamide] | – | > 6000 nM | 3000 nM | inhibition at 6 µM [2, 5]: 6% |
| CCn1nc(C(=O)NC[C@H]2CC[C@H](S(C)(=O)=O)CN2)c(Cl)c1-c1ccc(CC(C)(C)C(F)(F)F)cc1OC(F)F (stereo in doubt) [Example 8, 4-Chloro-5-(2-(difluoromethoxy)-4-(3,3,3-trifluoro-2,2-dimethylpropyl)phenyl)-1-ethyl-N-(((2RS,5SR)-5-(methylsulfonyl)piperidin-2-yl)methyl)-1H-pyrazole-3-carboxamide Hydrobromide] | 0.73 nM | 13 nM | – | inhibition at 3 µM [2, 6]: 92% |
| CCn1nc(C(=O)NC[C@H]2CC[C@H](S(C)(=O)=O)CC2)c(C)c1-c1ccc(N[C@H](C)C(F)(F)F)cc1OC [Example 228, 1-Ethyl-5-(2-methoxy-4-(((R)-1,1,1-trifluoropropan-2-yl)amino)phenyl)-4-methyl-N-(((1r,4R)-4-(methylsulfonyl)cyclohexyl)methyl)-1H-pyrazole-3-carboxamide] | – | 29 nM | 12 nM | inhibition at 6 µM [2, 5]: 99% |
| CCn1nc(C(=O)NC[C@H]2CC[C@H](S(C)(=O)=O)CC2)c(C(F)(F)F)c1-c1ccc(N[C@H](C)C(F)(F)F)cc1OC [Example 218, 1-Ethyl-5-(2-methoxy-4-(((R)-1,1,1-trifluoropropan-2-yl)amino)phenyl)-N-(((1r,4R)-4-(methylsulfonyl)cyclohexyl)methyl)-4-(trifluoromethyl)-1H-pyrazole-3-carboxamide] | – | – | 6.3 nM | RORγt (FL) Reporter Assay A or B, % inhibition @ 6 μM ([2]; 6 μM compound concentration): 105%; IC50 ([2]; HEK293T cells, read-out: RORγt (FL) Reporter Assay A or B, IC50): 61 nM |
| CCn1nc(C(=O)NCC2(N)CCC(S(C)(=O)=O)CC2)c(Cl)c1-c1ccc(CC(C)C(F)(F)F)cc1OC (stereo not drawn) [Example 128, N-((1-Amino-4-(methylsulfonyl)cyclohexyl)methyl)-4-chloro-1-ethyl-5-(2-methoxy-4-(3,3,3-trifluoro-2-methylpropyl)phenyl)-1H-pyrazole-3-carboxamide] | – | 850 nM | 140 nM | inhibition at 2 µM [2, 6]: 63% |
| CCn1nc(C(=O)NC[C@H]2CC[C@H](S(C)(=O)=O)CC2)c(Cl)c1-c1ccc(CCCC(F)(F)F)cc1OC [Example 80, 4-Chloro-1-ethyl-5-(2-methoxy-4-(4,4,4-trifluorobutyl)phenyl)-N-(((1r,4r)-4-(methylsulfonyl)cyclohexyl)methyl)-1H-pyrazole-3-carboxamide] | – | 6 nM | 2.3 nM | inhibition at 2 µM [2, 6]: 89% |
| Cc1c(C(=O)NC[C@]2(O)CC[C@@H](S(C)(=O)=O)CC2)nn(CC(C)(C)O)c1-c1ccc(CC(C)(C)C(F)(F)F)cc1OC(F)F [Example 146, 5-(2-(Difluoromethoxy)-4-(3,3,3-trifluoro-2,2-dimethylpropyl)phenyl)-1-(2-hydroxy-2-methylpropyl)-N-(((1s,4s)-1-hydroxy-4-(methylsulfonyl)cyclohexyl)methyl)-4-methyl-1H-pyrazole-3-carboxamide] | – | 15 nM | 15 nM | inhibition at 3 µM [2, 6]: 106% |
| CCn1nc(C(=O)NC[C@H]2CC[C@H](S(C)(=O)=O)CC2)c(C)c1-c1ccc(CCC(F)(F)F)cc1OC(F)F [Example 224, 5-(2-(Difluoromethoxy)-4-(3,3,3-trifluoropropyl)phenyl)-1-ethyl-4-methyl-N-(((1r,4r)-4-(methylsulfonyl)cyclohexyl)methyl)-1H-pyrazole-3-carboxamide] | – | 0.44 nM | 2.4 nM | inhibition at […] [2, 3]: 95% |
| CCn1nc(C(=O)NC[C@]2(O)CC[C@@H](S(C)(=O)=O)CC2)c(C#N)c1-c1ccc(CC(C)(C)C(F)(F)F)cc1OC [Example 126, 4-Cyano-1-ethyl-N-(((1s,4s)-1-hydroxy-4-(methylsulfonyl)cyclohexyl)methyl)-5-(2-methoxy-4-(3,3,3-trifluoro-2,2-dimethylpropyl)phenyl)-1H-pyrazole-3-carboxamide] | – | 84 nM | 12 nM | inhibition at 6 µM ([2]; HEK-293T): 101% |
| CCn1nc(C(=O)NC[C@H]2CC[C@H](S(=O)(=O)CC)CC2)c(Cl)c1-c1ccc(CC(C)(C)C(F)(F)F)cc1OC(F)F [Example 133, 4-Chloro-5-(2-(difluoromethoxy)-4-(3,3,3-trifluoro-2,2-dimethylpropyl)phenyl)-1-ethyl-N-(((1r,4r)-4-(ethylsulfonyl)cyclohexyl)methyl)-1H-pyrazole-3-carboxamide] | 0.2 nM | 4.6 nM | – | inhibition at […] ([2]; HEK-293T, 0.22 μM compound concentration (footnote *******), read-out: RORγt (FL) Reporter Assay A or B, % inhibition): 107% |
| CCn1nc(C(=O)NC[C@]2(O)CC[C@@H](S(C)(=O)=O)CC2)c(Cl)c1-c1ccc(CCC(F)(F)F)cc1OC(F)(F)F [Example 188, 4-Chloro-1-ethyl-N-(((1s,4s)-1-hydroxy-4-(methylsulfonyl)cyclohexyl)methyl)-5-(2-(trifluoromethoxy)-4-(3,3,3-trifluoropropyl)phenyl)-1H-pyrazole-3-carboxamide] | – | > 2000 nM | 11 nM | inhibition at 2 µM [2, 6]: 34% |
| CCCn1nc(C(=O)NC[C@H]2CC[C@H](S(C)(=O)=O)CC2)c(Cl)c1-c1ccc(C[C@@H](C)C(F)(F)F)cc1OC (single isomer, unassigned) [Example 43, 4-Chloro-5-(2-methoxy-4-((R*)-3,3,3-trifluoro-2-methylpropyl)phenyl)-N-(((1r,4R)-4-(methylsulfonyl)cyclohexyl)methyl)-1-propyl-1H-pyrazole-3-carboxamide] | 0.21 nM | 7 nM | – | inhibition at 0.67 µM ([2]; HEK-293T, 0.67 μM compound concentration (footnote ****), read-out: RORγt (FL) Reporter Assay A or B, % inhibition): 99% |
| CCn1nc(C(=O)NC[C@]2(C(=O)O)CC[C@@H](S(C)(=O)=O)CC2)c(Cl)c1-c1ccc(CC(C)(C)C(F)(F)F)cc1OC(F)F [Example 119, (1s*,4s*)-1-((4-Chloro-5-(2-(difluoromethoxy)-4-(3,3,3-trifluoro-2,2-dimethylpropyl)phenyl)-1-ethyl-1H-pyrazole-3-carboxamido)methyl)-4-(methylsulfonyl)cyclohexane-1-carboxylic Acid] | 1500 nM | > 6000 nM | – | inhibition at 6 µM [2, 5]: 14% |
| CCn1nc(C(=O)NC[C@H]2CC[C@H](S(C)(=O)=O)CN2)c(Cl)c1-c1ccc(CC(C)(C)C(F)(F)F)cc1OC(F)F (stereo in doubt) [Example 9, 4-Chloro-5-(2-(difluoromethoxy)-4-(3,3,3-trifluoro-2,2-dimethylpropyl)phenyl)-1-ethyl-N-(((2R*,5S*)-5-(methylsulfonyl)piperidin-2-yl)methyl)-1H-pyrazole-3-carboxamide hydrobromide] | 1.6 nM | 9.1 nM | – | inhibition at 1 µM ([2]; HEK-293T, 1 μM compound concentration (footnote ***), read-out: RORγt (FL) Reporter Assay A or B, % inhibition): 104% |
